{"source": "patent US20190160156A1", "about": "“Use of Acid Stable Proteases in Animal Feed, Preferably to Increase Performance of Cocc-Vaccinated Broiler Chickens” (Novozymes A/S, priority 2011, published 2019)", "tested_on": "male birds Cobb X Cobb chicks", "assay": "Floor pen feeding trial of cocci-vaccinated birds with ProAct and enzyme combinations (Example 3)", "assay_type": "in vivo, male broiler chickens (Cobb X Cobb)", "conditions": "Day 42, male Cobb X Cobb broilers", "description": "A floor pen trial was conducted using day old male birds Cobb X Cobb chicks. A total of 2,160 were allocated to the study. The experiment consisted of 48 pens of 45 male broiler chickens. Treatments were replicated in eight (8) blocks with six (6) treatments randomized in each. The birds were fed nutritionally-adequate basal diets based on corn/soybean meal and adjusted to the bird age by feeding a starter diet from day 1 to 16 and a grower diet from day 17 to 32 and a finisher diet from day 33 to 42. The 6 treatments were as follows:\nAs treatment RONOZYME® enzyme products, supplied by DSM Nutritional Products, Kaiseraugst, Switzerland have been used.\nRonozyme®AX=80% Ronozyme®WX+20% Ronozyme®A\nRonozyme® ProAct=pure protease product.\nAll birds received Cocci Vac® B on day 1 of age administered nasally in the hatchery except the positive control birds that were given a standard dose of the coccidiostat Salinomcyin of 60 g/ton of feed throughout the study\nAt the end of the trial at day 42 the average bird weight (Avg. Wt. Gain) and the average feed consumption (Feed Consump.) were determined and the Feed Conversion Ratio (FRC) was calculated by dividing the feed intake by the weight gain for each treatment"}
{"compound": "CC[C@@H](C(=O)[C@@H](C)[C@@H](O)[C@H](C)[C@@H]1O[C@@H]([C@@H](CC)C(=O)O)CC[C@@H]1C)[C@H]1O[C@]2(C=C[C@@H](O)[C@]3(CC[C@@](C)([C@H]4CC[C@](O)(CC)[C@H](C)O4)O3)O2)[C@H](C)C[C@@H]1C", "note": "[Salinomcyin 60 g/t, Salinomycin]", "values": [{"measurement": "Avg. Wt. Gain", "setting": "average bird weight", "result": 2.490, "unit": "a"}, {"measurement": "Feed Consump.", "setting": "average feed consumption", "result": 191.58, "unit": "a"}, {"measurement": "FCR", "setting": "feed intake divided by weight gain", "result": 1.719, "unit": "days"}]}
